According to ChEMBL document CHEMBL3301472, “MMV Malaria Box HIV and cytotoxicity screening”:

Legend:
Assay type in all cases: toxicity, cell-based
[1] = MMV: MTT Cytotoxicity Assay Day 7 pi of Assay #7 (compound washed out Day 1 pi), U87-CD4-CXCR4 cells, % cell death @ 5mM compound; conditions: human, u87-cd4-cxcr4, 5000 µM
[2] = MMV: MTT Cytotoxicity Assay Day 3 pi, U87-CD4-CXCR4 cells, % cell death @ 5mM compound; conditions: human, u87-cd4-cxcr4, 5000 µM
[3] = MMV: MTT Cytotoxicity Assay Day 3 pi, U87-CD4-CCR5 cells, % cell death @ 5mM compound; conditions: human, u87-cd4-ccr5, 5000 µM
[4] = MMV: MTT Cytotoxicity Assay Day 7 pi of Assay #10 (NO washout), U87-CD4-CCR5 cells, % cell death @ 5mM compound; conditions: human, u87-cd4-ccr5, 5000 µM
[5] = MMV: MTT Cytotoxicity Assay Day 7 pi of Assay #6 (compound washed out Day 1 pi), U87-CD4-CCR5 cells, % cell death @ 5mM compound; conditions: human, u87-cd4-ccr5, 5000 µM
[6] = MMV: MTT Cytotoxicity Assay Day 7 pi of Assay #11 (NO washout), U87-CD4-CXCR4 cells, % cell death @ 5mM compound; conditions: human, u87-cd4-cxcr4, 5000 µM

SMILES	% Cell Death [1]	% Cell Death [2]	% Cell Death [3]	% Cell Death [4]	% Cell Death [5]	% Cell Death [6]
COc1ccc(-c2cc3c(nn2)-c2ccccc2C3=O)cc1	13	49	71	75	30	101
COc1ccc2c(c1)C1(Nc3ccccc3-c3nc4ccccc4n31)C(=O)N2 (centres undefined)	-24	13	-75	29	-9	9
CCOc1c(Cl)cc(CNCC(O)c2ccccc2)cc1OC (centres undefined)	-17	21	14	2	20	-40
COc1ccc2nc(C)cc(Nc3ccccc3O)c2c1	-12	30	5	6	14	-34
CCOc1ccccc1CN1CCc2nc3cc(C(C)(C)C)nn3c(O)c2C1	3	21	100	95	-7	98
Cc1cc(N2CCCC2)nc(Nc2ccc(NC(=O)CCc3ccccc3)cc2)n1	-12	30	14	0	20	-21
CC(C)(C)CC(C)(C)NCC(O)COc1ccc(Cl)cc1Cl (centres undefined)	-31	39	-7	-1	-12	8
O=C1c2ccccc2-c2nnc(-c3ccc(Br)cc3)cc21	4	16	2	24	1	-24
Cc1nc2ccccc2c(O)c1CC=C(Cl)Cl	20	30	19	26	-2	-3
COCCNCC(O)Cn1c2ccc(Cl)cc2c2cc(Cl)ccc21 (centres undefined)	-16	30	29	28	14	15
FC(F)(F)c1cccc(Nc2nc3ccccc3nc2Nc2cccc(C(F)(F)F)c2)c1	3	15	-15	25	15	-12
COc1ccc2nc(C)cc(Nc3ccc(Cl)cc3)c2c1	90	100	106	121	103	117
COc1ccc(CN2CCCC(C(=O)c3ccc(C(F)(F)F)cc3)C2)c(O)c1 (centres undefined)	97	89	107	105	104	109
O=C(NC1CCCCC1)C(c1cccs1)N(CCc1ccccc1)C(=O)c1ccco1 (centres undefined)	61	54	93	90	90	97
COc1ccc(C(=O)NC(c2ccc(Cl)cc2Cl)c2cc(Cl)c3cccnc3c2O)cc1 (centres undefined)	18	58	42	84	1	102
Nc1ccc(-c2nc3cc(Cc4ccc5[nH]c(-c6ccc(N)cc6)nc5c4)ccc3[nH]2)cc1	82	57	88	98	69	110
CN1CCN(c2c3c(c(C#N)c4nc5ccccc5n24)CCC3)CC1	-15	-10	-3	8	1	16
N=c1c2ccccc2nnn1-c1cccc(C(F)(F)F)c1	86	99	106	101	68	112
COc1cc(-c2nc(-c3ccc(Sc4ccccc4)cc3)c(-c3ccccc3)[nH]2)cc(OC)c1O	-13	29	18	33	5	-41
O=c1cc(NC2CCN(CCCc3ccccc3)CC2)c2cc(Cl)ccc2o1	37	19	16	31	-6	-41

SMILES	% Cell Death [1]	% Cell Death [2]	% Cell Death [3]	% Cell Death [4]	% Cell Death [5]	% Cell Death [6]
CCN(CC)CCNc1ncnc2c1[nH]c1ccc(Br)cc12	-18	24	-7	15	-1	-18
CCOc1ccc(-n2cc(-c3ccccc3)c3c(SCc4cc(C)ccc4C)ncnc32)cc1	-9	29	3	-1	11	11
CC1CCN(Cc2c(O)ccc3cc(-c4nc5ccccc5s4)c(=O)oc23)CC1	-13	33	12	30	16	9
O=C1c2ccccc2C2=Nc3ccccc3SC(c3cccc(F)c3)C12 (centres undefined)	28	20	11	7	-3	4
O=C(Nc1ccc(-c2nc3cc4ccccc4cc3[nH]2)cc1)c1cccc(Br)c1	-24	42	16	7	13	-33
COc1cc(SC)ccc1C(=O)N1CCCC(C)C1 (centres undefined)	-26	28	9	-5	12	-41
COc1ccc(N2CCN(C(CNC(=O)CC(C)(C)C)c3ccc4c(c3)OCO4)CC2)cc1 (centres undefined)	22	38	-2	44	6	37
COc1cccc(C(=O)NC(c2ccc(C)cc2)c2cc(Cl)c3cccnc3c2O)c1 (centres undefined)	-4	68	88	26	23	-24
O=C(O)C(=O)O.Oc1ccc(Br)cc1CN1CCN(Cc2cccc(F)c2)CC1	86	101	107	103	94	112
CCOC(=O)C1(Cc2ccccc2)CCN(Cc2cccc(OC)c2O)CC1	-16	29	0	21	15	-36
Oc1ccc(C(=C(Cl)Cl)c2ccc(O)cc2)cc1	36	75	80	84	-14	103
Clc1ccc2[nH]c3c(NCCCN4CCOCC4)ncnc3c2c1	91	100	110	141	105	118
COc1ccc(C(=O)NC(c2ccccc2Cl)c2cc(Cl)c3cccnc3c2O)cc1 (centres undefined)	3	81	50	11	23	6
COc1cc2c(cc1OC)C1=NNC(=O)C1=NC(C)(C)C2	95	100	107	106	101	98
CCCCCCc1cc(O)c2c3c(c(=O)oc2c1)CCC(C)C3 (centres undefined)	16	20	16	26	16	9
CC1=C(CC(=O)c2cccc([N+](=O)[O-])c2)C(=O)c2ccccc2C1=O	91	76	92	94	100	106
CCCCc1c(C)nc2c(OC)cccc2c1O	17	52	0	74	43	46
COc1ccc(C)c2sc(N(Cc3cccnc3)C(=O)c3ccc(C#N)cc3)nc12	-6	24	-7	13	-1	-39
Cc1cc(N2CCN(C3CCCC3)CC2)n2c(nc3ccccc32)c1C#N	-24	44	35	35	48	-3
